Measured values published in US20250230193A1, “CYCLIC COMPOUND HAVING SELECTIVE KRAS INHIBITORY EFFECT ON HRAS AND NRAS” (CHUGAI SEIYAKU KABUSHIKI KAISHA, priority 2022, published 2025).

Experiments:
[1] = target: GDP-bound NRAS wild-type protein (Homo sapiens, UniProt P01111); test: Binding to NRAS by surface plasmon resonance (SPR), Single Cycle Kinetics; settings: KD ratio NRAS/KRAS, SPR
[2] = target: GDP-bound HRAS wild-type protein (Homo sapiens, UniProt P01112); test: Binding to HRAS by surface plasmon resonance (SPR), Single Cycle Kinetics; settings: KD ratio HRAS/KRAS, SPR
Chain of GDP-bound HRAS wild-type protein (P01112 whole entry): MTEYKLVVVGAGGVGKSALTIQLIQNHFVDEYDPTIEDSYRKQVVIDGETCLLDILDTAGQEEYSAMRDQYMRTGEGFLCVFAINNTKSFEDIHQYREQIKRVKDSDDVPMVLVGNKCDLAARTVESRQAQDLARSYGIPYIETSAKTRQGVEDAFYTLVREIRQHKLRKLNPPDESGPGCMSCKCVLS

Chain of GDP-bound NRAS wild-type protein (P01111 whole entry): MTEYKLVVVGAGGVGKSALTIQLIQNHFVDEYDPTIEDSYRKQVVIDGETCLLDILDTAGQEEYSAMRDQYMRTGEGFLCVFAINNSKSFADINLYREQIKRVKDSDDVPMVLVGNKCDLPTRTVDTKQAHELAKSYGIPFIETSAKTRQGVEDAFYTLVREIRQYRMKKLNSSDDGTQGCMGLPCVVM

Row | SMILES | NRAS/KRAS (ratio of KD value with respect to GDP-bound NRAS wild-type protein to KD value with respect to KRAS) [1] | HRAS/KRAS (ratio of KD value with respect to GDP-bound HRAS wild-type protein to KD value with respect to KRAS) [2]
1 | CC[C@H](C)[C@@H]1NC(=O)[C@H](CC(C)C)N(C)C(=O)C[C@@H](C(=O)N2CCC2)N(C)C(=O)[C@H](C2CCCC2)N(C)C(=O)C2(CCCC2)NC(=O)[C@@H]2CCCN2C(=O)[C@H](CCc2cc(F)c(C(F)(F)F)c(F)c2)NC(=O)CN(C)C(=O)[C@H](Cc2ccc(C(F)(F)F)cc2)N2CCCC[C@@H](C2=O)N(C)C(=O)CN(C)C1=O [PP0570] | B (a compound having 3 or more and less than 10 is denoted as B) | B (a compound having 3 or more and less than 10 is denoted as B)
2 | CC[C@H](C)[C@@H]1NC(=O)[C@H](CC(C)C)N(C)C(=O)C[C@@H](C(=O)N2CCCC2)N(C)C(=O)[C@H](C2CCCC2)N(C)C(=O)C2(CCCC2)NC(=O)[C@@H]2CCCN2C(=O)[C@H](CCc2cc(F)c(C(F)(F)F)c(F)c2)NC(=O)CN(C)C(=O)[C@H](Cc2ccc(C(F)(F)F)cc2)N2CCCC[C@@H](C2=O)N(C)C(=O)CN(C)C1=O [PP0571] | B (a compound having 3 or more and less than 10 is denoted as B) | B (a compound having 3 or more and less than 10 is denoted as B)
3 | CC[C@H](C)[C@@H]1NC(=O)[C@H](CC(C)C)N(C)C(=O)C[C@@H](C(=O)N2CCCCC2)N(C)C(=O)[C@H](C2CCCC2)N(C)C(=O)C2(CCCC2)NC(=O)[C@@H]2CCCN2C(=O)[C@H](CCc2cc(F)c(C(F)(F)F)c(F)c2)NC(=O)CN(C)C(=O)[C@H](Cc2ccc(C(F)(F)F)cc2)N2CCCC[C@@H](C2=O)N(C)C(=O)CN(C)C1=O [PP0572] | B (a compound having 3 or more and less than 10 is denoted as B) | B (a compound having 3 or more and less than 10 is denoted as B)
4 | CC[C@H](C)[C@@H]1NC(=O)[C@H](CC(C)C)N(C)C(=O)C[C@@H](C(=O)N2C3CCC2COC3)N(C)C(=O)[C@H](C2CCCC2)N(C)C(=O)C2(CCCC2)NC(=O)[C@@H]2CCCN2C(=O)[C@H](CCc2cc(F)c(C(F)(F)F)c(F)c2)NC(=O)CN(C)C(=O)[C@H](Cc2ccc(C(F)(F)F)cc2)N2CCCC[C@@H](C2=O)N(C)C(=O)CN(C)C1=O [PP0573] | B (a compound having 3 or more and less than 10 is denoted as B) | B (a compound having 3 or more and less than 10 is denoted as B)
5 | CC[C@H](C)[C@@H]1NC(=O)[C@H](CC(C)C)N(C)C(=O)C[C@@H](C(=O)N(C)C)N(C)C(=O)[C@H](C2CCCC2)N(C)C(=O)C2(CCC2)NC(=O)[C@@H]2CCCN2C(=O)[C@H](CCc2cc(F)c(C(F)(F)F)c(F)c2)NC(=O)CN(C)C(=O)[C@H](Cc2ccc(C(F)(F)F)cc2)N2CCCC[C@@H](C2=O)N(C)C(=O)CN(C)C1=O [PP0574] | C (A compound having a KD ratio of 0.1 or more and less than 3 is denoted as C) | B (a compound having 3 or more and less than 10 is denoted as B)
6 | CC[C@H](C)[C@@H]1NC(=O)[C@H](CC(C)C)N(C)C(=O)C[C@@H](C(=O)N2CCOCC2)N(C)C(=O)[C@H](C2CCCC2)N(C)C(=O)C2(CCC2)NC(=O)[C@@H]2CC(F)(F)CN2C(=O)[C@H](CCc2cc(F)c(C(F)(F)F)c(F)c2)NC(=O)CN(C)C(=O)[C@H](Cc2ccc(C(F)(F)F)cc2)N2CCCC[C@@H](C2=O)N(C)C(=O)CN(C)C1=O [PP0575] | B (a compound having 3 or more and less than 10 is denoted as B) | B (a compound having 3 or more and less than 10 is denoted as B)
7 | CC[C@H](C)[C@@H]1NC(=O)[C@H](CC(C)C)N(C)C(=O)C[C@@H](C(=O)N(C)C)N(C)C(=O)[C@H](C2CCCC2)N(C)C(=O)C2(CCCC2)NC(=O)[C@@H]2CC(F)(F)CN2C(=O)[C@H](CCc2cc(F)c(C(F)(F)F)c(F)c2)NC(=O)CN(C)C(=O)[C@H](Cc2ccc(C(F)(F)F)cc2)N2CCCC[C@@H](C2=O)N(C)C(=O)CN(C)C1=O [PP0576] | C (A compound having a KD ratio of 0.1 or more and less than 3 is denoted as C) | B (a compound having 3 or more and less than 10 is denoted as B)
8 | CC[C@H](C)[C@@H]1NC(=O)[C@H](CC(C)C)N(C)C(=O)C[C@@H](C(=O)N(C)C)N(C)C(=O)[C@H](C2CCCC2)N(C)C(=O)C2(CCC2)NC(=O)[C@@H]2CC(F)(F)CN2C(=O)[C@H](CCc2cc(F)c(C(F)(F)F)c(F)c2)NC(=O)CN(C)C(=O)[C@H](Cc2ccc(C(F)(F)F)cc2)N2CCCC[C@@H](C2=O)N(C)C(=O)CN(C)C1=O [PP0577] | C (A compound having a KD ratio of 0.1 or more and less than 3 is denoted as C) | C (A compound having a KD ratio of 0.1 or more and less than 3 is denoted as C)
9 | CCO[C@@H]1C[C@H]2C(=O)NC3(CCC3)C(=O)N(C)[C@@H](C3CCCC3)C(=O)N(C)[C@H](C(=O)N3CCOCC3)CC(=O)N(C)[C@@H](CC(C)C)C(=O)N[C@@H]([C@@H](C)CC)C(=O)N(C)CC(=O)N(C)[C@H]3CCCCN(C3=O)[C@@H](Cc3ccc(C(F)(F)F)cc3)C(=O)N(C)CC(=O)N[C@@H](CCc3cc(F)c(C(F)(F)F)c(F)c3)C(=O)N2C1 [PP0578] | B (a compound having 3 or more and less than 10 is denoted as B) | B (a compound having 3 or more and less than 10 is denoted as B)
10 | CCO[C@@H]1C[C@H]2C(=O)NC3(CCCC3)C(=O)N(C)[C@@H](C3CCCC3)C(=O)N(C)[C@H](C(=O)N(C)C)CC(=O)N(C)[C@@H](CC(C)C)C(=O)N[C@@H]([C@@H](C)CC)C(=O)N(C)CC(=O)N(C)[C@H]3CCCCN(C3=O)[C@@H](Cc3ccc(C(F)(F)F)cc3)C(=O)N(C)CC(=O)N[C@@H](CCc3cc(F)c(C(F)(F)F)c(F)c3)C(=O)N2C1 [PP0579] | C (A compound having a KD ratio of 0.1 or more and less than 3 is denoted as C) | B (a compound having 3 or more and less than 10 is denoted as B)
11 | CCO[C@@H]1C[C@H]2C(=O)NC3(CCC3)C(=O)N(C)[C@@H](C3CCCC3)C(=O)N(C)[C@H](C(=O)N(C)C)CC(=O)N(C)[C@@H](CC(C)C)C(=O)N[C@@H]([C@@H](C)CC)C(=O)N(C)CC(=O)N(C)[C@H]3CCCCN(C3=O)[C@@H](Cc3ccc(C(F)(F)F)cc3)C(=O)N(C)CC(=O)N[C@@H](CCc3cc(F)c(C(F)(F)F)c(F)c3)C(=O)N2C1 [PP0580] | C (A compound having a KD ratio of 0.1 or more and less than 3 is denoted as C) | C (A compound having a KD ratio of 0.1 or more and less than 3 is denoted as C)
